`CC(C)S(=O)(=O)NCC(C)(F)c1ccc(-c2ccc(CC#N)cc2)cc1` (stereo not shown) [Example 9, 2-{4-[4-(1-Fluoro-1-methyl-2-{[(methylethyl)sulfonyl]amino}ethyl)phenyl]phenyl}ethanenitrile] displayed a melting point of 155 to 157 °C.

For the origin of these results see US7034045B1, “Monofluoroalkyl derivatives” (Eli Lilly and Company, priority 1999, dated 2006).
